The test deals with cutaneous blood flow in the microvasculature of the hind foot pad. Description: Rat Blood Flow Assay (laser Doppler flowmetry, hind foot pad). It is filed as in vivo. The procedure:
α-adrenergic agonists that act on the sympathetic nervous system outflow can regulate cutaneous blood flow in response to temperature changes.
A laser Doppler microvascular perfusion monitor (Laser Doppler Flowmetry LDP technique), was used to monitor red blood cell perfusion in the microvasculature of the hind foot pad. The laser doppler flowmetry (LDP) is an OxyFlo Microvascular Perfusion Monitor, from Oxford Optronix LTd. UK.
Briefly, 15 μL of test articles were applied topically to one hind foot pad of anaesthetized CD rats and 15 μL of vehicle was applied to the other footpad. The hairless CD rats used are a spontaneous mutation model isolated from a Crl:CD(SD) colony in Charles River, in the late 1980s. Rederived in 1993 and subsequently transferred to Charles River, Raleigh, N.C. for barrier room production. […] Specific genetic analysis to identify the mutation has not been undertaken. Histopathology has determined the model is euthymic.
Thirty minutes following test article administration, dynamic blood flow changes were measured and recorded every 15 seconds for 4 minutes per temperature interval for 5 intervals (22° C.→37° C.→4° C.→37° C.→22° C.). Rats were placed on a 37° C. heat pad to increase their temperature and on an ice pad to decrease their temperature to 4° C. The level of blood flow in the two paws was compared. […] It has a significant difference.

Turning to `Brc1c(N=C2NCCN2)ccc2[nH]cnc12` [4-bromo-N-(imidazolidin-2-ylidene)-1H-benzimidazol-5-amine], the “effect on induced vessel dilation caused at 37° C.” value (topical application to the skin at a concentration of 0.5%, FIG. 1) was “inhibited the induced vessel dilation”. Also, the “overall blood flow inhibition” value (topical, 15 μL to one hind foot pad of anaesthetized hairless CD rats vs vehicle on other footpad, measured 30 min after application over 5 temperature intervals (22→37→4→37→22° C.), P=0.014) is recorded as 17%.

Values taken from patent US20140235685A1, “PHARMACEUTICAL COMPOSITIONS COMPRISING 4-BROMO-N-(IMIDAZOLIDIN-2-YLIDENE)-1H-BENZIMIDAZOL-5-AMINE FOR TREATING SKIN DISEASES” (Allergan, Inc., priority 2011, published 2014).
